Assay results reported in US8378098B2, “Imidazol[1,2-α]quinoxalines and derivatives for the treatment of cancers” (Universite de Montpellier I, priority 2007, dated 2013).
Entries after “also recorded” stand apart in the source; their conditions may differ.

Experiments:
[1] = system: M4Be (melanoma); assay: in vitro cytotoxicity on M4Be melanoma line; format: cell-based; settings: Homo sapiens, Table 2, unit inferred, read-out: IC50 M4Be
Excerpt: (§1) Several human carcinoma cell lines were used: • Lines A375, M4Be, RPMI7591 from human melanoma. • Line LS174T from colon carcinoma. • Line A 2780 from ovarian carcinoma. • The Raji line from B lymphoma. • Line MCF7 from breast carcinoma.

[2] = system: MCF7 (breast cancer); assay: in vitro cytotoxicity on MCF7 breast cancer line; format: cell-based; settings: Homo sapiens, Table 2, unit inferred
Excerpt: as §1

[3] = system: LS174T (colon cancer); assay: in vitro cytotoxicity on LS174T colon cancer line; format: cell-based; settings: Homo sapiens, Table 2, unit inferred
Excerpt: as §1

[4] = system: M4Be human melanoma; assay: anti-proliferative activity in vivo, M4Be human melanoma xenografted in athymic mice
Method: FIG. 1: Effects of fotemustine (20 mg/kg once per week for 3 weeks) and EAPB0203 (20 mg/kg twice per week for 3 weeks) on tumour growth in athymic Swiss mice xenografted with M4Be human melanoma cell line.
Δ, control; ▪, EAPB0203; ●, fotemustine. The data are the results of only one experiment carried out on six mice per group. The results are represented as mean±SEM.
In this study, data are presented relating to the activity of EAPB0203 on the volume of a type of human melanoma tumour model (M4Be lines), xenografted in athymic mice. This study required as a preliminary step several tests of grafts of human melanoma cell lines in athymic mice before establishing the adequate animal model. The in vivo study was performed following the in vitro experiments described previously.
The activity and specificity of EAPB0203 in vivo on tumour growth of human melanoma are evaluated by monitoring tumour development in mice carrying M4Be melanoma treated by administration of fotemustine and EAPB0203 at various doses.
For this study, 18 Swiss nude mice (3 groups of 6 mice) were used. M4Be cancer cells in suspension were injected subcutaneously into the right flank of each athymic Swiss nude female 7-week-old mouse weighing 20-22 g at the beginning of the protocol. The mice were then maintained in a sterile atmosphere and received aseptic food and water. The weight of the mouse and the growth of the tumour in three dimensions were recorded twice a week.
A first group of 6 mice (reference) will receive fotemustine by intra-peritoneal route at a dose of 20 mg/kg once per week for 3 weeks, beginning 7 days after inoculation at the time when the tumour will be visible and palpable. A second group of 6 mice will receive EAPB0203 at the same dose of 20 mg/kg via intra-peritoneal route but twice per week (40 mg/kg per week). The third group (control) of 6 mice will receive only the administration carrier. Tumour volume is calculated by the following formula: length X width X height X 0.52, and is expressed as mean±SEM mm^3.
For fotemustine and EAPB0203, the sequence of administrations is a treatment of three weeks, then two weeks without treatment, and then a second treatment of three weeks.

[5] = system: human T lines not infected by HTLV-I (CEM, Jurkatt, Molt-4 and HuT-78); assay: cell growth of human T lines not infected by HTLV-I (CellTiter 96, trypan blue exclusion); format: cell-based; settings: 1 to 10 μM, 24-96 h
Method: (§2) FIG. 2: HTLV-I-positive and HTLV-I-negative malignant human cell lines are sensitive to EAPB0203, but activated or inactivated normal T lymphocytes are resistant. Effects of EAPB0203 on the growth of human T lines not infected by HTLV-I (CEM, Jurkatt, Molt-4 and HuT-78), HTLV-I-positive human T lines (HuT-102 and C8166, and MT2), and normal lymphocytes at rest or activated by PHA. The activated normal PBMC were supplemented with 2% PHA. EAPB0203 was added at the concentrations indicated in mole/l for 24-96 h. Cell growth is analyzed with the “CellTiter 96®” nonradioactive cell growth kit. The results are expressed as a percentage of the control (0.1% DMSO) and represent the mean of the results obtained in three independent experiments.
(§3) The in vitro activity of EAPB0203 on adult T-cell leukemia (ATL) transformed by retrovirus HTLV-I (HuT-102, MT2 . . . ) and malignant HTLV-I-negative T-cells (CEM, Jurkatt . . . ) was evaluated. Initially, the effect of EAPB0203 on cell growth of these lines was evaluated by two techniques, the nonradioactive “CellTiter 96®” cell growth kit and the trypan blue exclusion method.

[6] = system: normal lymphocytes activated or not activated by PHA; assay: growth of normal lymphocytes at rest or activated by PHA; format: cell-based, human; settings: two healthy subjects
Method: as §2, §3

[7] = system: CEM, HuT-102, MT2, and Jurkatt cells; assay: cell cycle analysis by flow cytometry (propidium iodide); format: cell-based, human
Method: (A) Effects of EAPB0203 on the distribution of the cell cycle of CEM, HuT-102, MT2, and Jurkatt cells. The cells treated by EAPB0203 were marked with propidium iodide ([…]) and analysis of the cellular cycle was carried out by FACScan flow cytometry. (b) The pre-G1 percentage represents the apoptotic cells. (c) The cells in cycle, the sum of phases (S+G2/M), are represented as a percentage of non-apoptotic cells. The results represent two independent experiments.
The mechanisms of inhibition of cell proliferation caused by EAPB0203 in the cell lines studied were determined by flow cytometry. This study evaluated the distribution of cells in the various phases of the cell cycle. […] This pre-G0/G1 peak corresponds to cells whose DNA content is decreased by loss of cleaved DNA fragments during cell death (FIG. 3).

CNc1nc2ccccc2n2c(CCc3ccccc3)cnc12 [EAPB0203, N-methyl-1-(2-phenylethyl)imidazo[1,2-a]quinoxalin-4-amine]
IC50 [1]: 2.58 ± 0.4 µM | IC50 [2]: 1.08 ± 0.46 µM | IC50 [3]: 4.12 ± 0.67 µM | tolerance (weight, side effects) ([4]; 20 mg/kg twice per week, intra-peritoneal, mice carrying M4Be melanoma): well tolerated without loss of weight or apparent side effects | tumour growth compared to control mice and fotemustine mice ([4]; EAPB0203 20 mg/kg twice per week i.p., FIG. 1): significant delay in tumour growth | tumour volume of a remaining mouse when last fotemustine mice were euthanatized ([4]; day 76, 20 mg/kg twice per week i.p.): less than 2 cm^3 | growth of malignant T-cells not associated with HTLV-I [5]: sensitive; also recorded: progressive, dose-dependent inhibition | growth of normal lymphocytes [6]: completely resistant | pre-G0/G1 apoptotic population [7]: presence of a pre-G0/G1 apoptotic population | distribution of cells in the phases of the cell cycle ([7]; propidium iodide): induces the termination of the cell cycle in phase G2/M; also recorded: progressive accumulation of cells in phase G2
